Measurements published in USRE47221E1, “Tricyclic compounds” (AbbVie Inc., priority 2009, dated 2019).
pIC50: −log10 of the molar value.

target: T1, Jak3 (Homo sapiens, UniProt P52333); experiment: Jak3 enzyme data for selected compounds; format: biochemical
T1 construct: Jak3 enzyme (aa 811-1103); expressed in SF9 cells as a GST fusion; GST; made in house; host or cells: SF9 insect cells
T1 sequence (P52333 811-1103): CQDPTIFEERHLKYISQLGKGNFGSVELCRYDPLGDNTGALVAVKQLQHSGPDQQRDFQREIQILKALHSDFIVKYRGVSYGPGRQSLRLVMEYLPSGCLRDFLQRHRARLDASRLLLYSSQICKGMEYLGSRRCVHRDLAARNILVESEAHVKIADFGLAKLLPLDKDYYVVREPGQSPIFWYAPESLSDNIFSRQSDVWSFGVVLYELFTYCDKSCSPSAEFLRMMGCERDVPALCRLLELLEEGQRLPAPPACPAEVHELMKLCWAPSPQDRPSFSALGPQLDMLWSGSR

pIC50	Compound
< 6.00	CC[C@@H]1C[C@H](NS(=O)(=O)CCN2CCOCC2)C[C@@H]1c1nnc2cnc3[nH]ccc3n12 [D.1.61]
> 7.00	CC[C@@H]1C[C@H](N(CCO)S(=O)(=O)C2CC2)C[C@@H]1c1nnc2cnc3[nH]ccc3n12 [D.1.31]
6.00 to 7.00	CC[C@@H]1C[C@H](NS(=O)(=O)N2CC(C#N)C2)C[C@@H]1c1nnc2cnc3[nH]ccc3n12 [D.2.5]
> 7.00	C[C@@H]1C[C@H](NS(=O)(=O)NCCO)C[C@@H]1c1cnc2cnc3[nH]ccc3n12 (single isomer, unassigned) [AA.1.81]
6.00 to 7.00	CC[C@@H]1C[C@H](NS(=O)(=O)CCn2nccn2)C[C@@H]1c1nnc2cnc3[nH]ccc3n12 [D.1.59]
6.00 to 7.00	CC[C@@H]1C[C@@H](OC2CCOCC2)C[C@@H]1c1nnc2cnc3[nH]ccc3n12 (single isomer, unassigned) [AA.1.91, 1-(2-ethyl-4-(tetrahydro-2H-pyran-4-yloxy)cyclopentyl)-6H-pyrrolo[2,3-e][1,2,4]triazolo[4,3-a]pyrazine]
6.00 to 7.00	CC[C@@H]1C[C@H](NS(=O)(=O)CCn2ccnn2)C[C@@H]1c1nnc2cnc3[nH]ccc3n12 [D.1.58]
> 7.00	CC[C@@H]1C[C@H](NS(=O)(=O)C2CC2)C[C@@H]1c1nc(CCCO)c2cnc3[nH]ccc3n12 [Example #14, N-((1S,3R,4S)-3-ethyl-4-(3-(3-hydroxypropyl)-6H-imidazo[1,5-a]pyrrolo[2,3-e]pyrazin-1-yl)cyclopentyl)cyclopropanesulfonamide]
6.00 to 7.00	CC[C@@H]1C[C@H](Oc2cnc(C#N)cn2)C[C@@H]1c1nnc2cnc3[nH]ccc3n12 (relative stereo) [AA.1.37, 5-(3-ethyl-4-(6H-pyrrolo[2,3-e][1,2,4]triazolo[4,3-a]pyrazin-1-yl)cyclopentyloxy)pyrazine-2-carbonitrile]
6.00 to 7.00	CC[C@@H]1C[C@H](NS(=O)(=O)C2CC2)C[C@@H]1c1nc(CCO)c2cnc3[nH]ccc3n12 [Example #18, N-((1S,3R,4S)-3-ethyl-4-(3-(2-hydroxyethyl)-6H-imidazo[1,5-a]pyrrolo[2,3-e]pyrazin-1-yl)cyclopentyl)cyclopropanesulfonamide]
> 7.00	CC[C@H]1C[C@@H](NS(=O)(=O)C2CC2)C[C@H]1c1cnc2cnc3[nH]ccc3n12 (single isomer, unassigned) [AA.1.25, N-(3-ethyl-4-(3H-imidazo[1,2-a]pyrrolo[2,3-e]pyrazin-8-yl)cyclopentyl)cyclopropanesulfonamide]
> 7.00	CC[C@@H]1C[C@H](NS(=O)(=O)C2CC2)CN1c1cnc2cnc3[nH]ccc3n12 [D.1.25]
> 7.00	CC[C@@H]1C[C@H](NS(=O)(=O)C2CC2)C[C@@H]1c1nc(CO)c2cnc3[nH]ccc3n12 [Example #17, N-((1S,3R,4S)-3-ethyl-4-(3-(hydroxymethyl)-6H-imidazo[1,5-a]pyrrolo[2,3-e]pyrazin-1-yl)cyclopentyl)cyclopropanesulfonamide]
< 6.00	CC[C@@H]1C[C@H](OCC2CCOCC2)C[C@@H]1c1nnc2cnc3[nH]ccc3n12 (single isomer, unassigned) [AA.1.67, 1-(2-ethyl-4-((tetrahydro-2H-pyran-4-yl)methoxy)cyclopentyl)-6H-pyrrolo[2,3-e][1,2,4]triazolo[4,3-a]pyrazine]
6.00 to 7.00	CC[C@@H]1C[C@H](NS(=O)(=O)N2CCC2)C[C@@H]1c1nnc2cnc3[nH]ccc3n12 [D.1.10]
< 6.00	CC[C@H]1C[C@H](OCc2ccc(C#N)cc2)C[C@H]1c1nnc2cnc3[nH]ccc3n12 (single isomer, unassigned) [AA.1.102, 4-((3-ethyl-4-(6H-pyrrolo[2,3-e][1,2,4]triazolo[4,3-a]pyrazin-1-yl)cyclopentyloxy)methyl)benzonitrile]
> 7.00	C[C@@H]1C[C@H](NS(=O)(=O)C2CC2)C[C@@H]1c1cnc2cnc3[nH]ccc3n12 (single isomer, unassigned) [Example #24]
6.00 to 7.00	CC[C@@H]1C[C@H](N(CC2CC2)S(=O)(=O)C2CC2)C[C@@H]1c1nnc2cnc3[nH]ccc3n12 [D.1.22]
< 6.00	CC[C@@H]1C[C@H](NS(=O)(=O)CCn2cncn2)C[C@@H]1c1nnc2cnc3[nH]ccc3n12 [YY.1.2]
6.00 to 7.00	CC[C@@H]1C[C@@H](OCc2cccc(C#N)c2)C[C@@H]1c1nnc2cnc3[nH]ccc3n12 (single isomer, unassigned) [AA.1.99, 3-((3-ethyl-4-(6H-pyrrolo[2,3-e][1,2,4]triazolo[4,3-a]pyrazin-1-yl)cyclopentyloxy)methyl)benzonitrile]

Second part, the compound before the results:

Compound	pIC50
CC[C@@H]1C[C@H](OCc2ccc(OC)cc2)C[C@H]1c1nnc2cnc3[nH]ccc3n12 (racemic) [D.1.38]	6.00 to 7.00
O=S(=O)(NC[C@H]1CC[C@@H](c2ncc3cnc4[nH]ccc4n23)C1)C1CC1 (single isomer, unassigned) [AA.1.61]	6.00 to 7.00
C[C@@H]1CCN(C(=O)Nc2ccc(C#N)cc2)C[C@@H]1c1ncc2cnc3[nH]ccc3n12 [QQ.1.4]	> 7.00
O=S(=O)(NC[C@H]1CC[C@H](c2ncc3cnc4[nH]ccc4n23)C1)C1CC1 (single isomer, unassigned) [AA.1.60]	6.00 to 7.00
C[C@@H]1CCN(C(=O)N2CCC(F)(F)C2)C[C@@H]1c1ncc2cnc3[nH]ccc3n12 [J.2.8]	> 7.00
C[C@@H]1CCN(c2ncc(C#N)s2)C[C@@H]1c1ncc2cnc3[nH]ccc3n12 (racemic) [L.1.4]	> 7.00
C[C@@H]1C[C@H](Nc2cnc(C#N)cn2)C[C@H]1c1cnc2cnc3[nH]ccc3n12 (single isomer, unassigned) [AA.1.18, 5-(3-(3H-imidazo[1,2-a]pyrrolo[2,3,-e]pyrazin-8-yl)-4-methylcyclopentylamino)pyrazine-2-carbonitrile]	> 7.00
C[C@@H]1CCN(C(=O)N2CCCCCC2)C[C@@H]1c1ncc2cnc3[nH]ccc3n12 [J.2.14]	> 7.00
C[C@@H]1CCN(C(=O)N2CCC[C@@H]2CO)C[C@@H]1c1ncc2cnc3[nH]ccc3n12 [J.2.9]	> 7.00
C[C@@H]1CCN(C(=O)N2CCC2)C[C@@H]1c1ncc2cnc3[nH]ccc3n12 [J.2.6]	> 7.00
C[C@@H]1CCN(S(=O)(=O)N2CCCC2)C[C@@H]1c1ncc2cnc3[nH]ccc3n12 [DD.1.1]	> 7.00
CC1(C)CCN(C(=O)N2CCC[C@@H](c3ncc4cnc5[nH]ccc5n34)C2)CC1 [J.3.10]	> 7.00
O=C(N1CCC(Cl)CC1)N1CCC[C@@H](c2ncc3cnc4[nH]ccc4n23)C1 [J.3.11]	> 7.00
C[C@H]1CCN(S(=O)(=O)CCC(F)(F)F)C[C@@H]1Nc1ncc2cnc3[nH]ccc3n12 (racemic) [D.1.66]	< 6.00
C[C@@H]1CCN(C(=O)N2CC(F)C2)C[C@@H]1c1ncc2cnc3[nH]ccc3n12 [J.2.11]	> 7.00
CC[C@@H]1C[C@@H](Oc2ccc(C(F)(F)F)cn2)C[C@@H]1c1nnc2cnc3[nH]ccc3n12 (single isomer, unassigned) [AA.1.95, 1-(2-ethyl-4-(5-(trifluoromethyl)pyridin-2-yloxy)cyclopentyl)-6H-pyrrolo[2,3-e][1,2,4]triazolo[4,3-a]pyrazine]	< 6.00
C[C@@H]1C[C@H](NS(=O)(=O)C2(C)CC2)C[C@@H]1c1ncc2cnc3[nH]ccc3n12 [D.1.77]	6.00 to 7.00

Compound	pIC50
c1cc2c3c(cnc2[nH]1)CCCN3C1CCCCC1 [Example #28, 1-cyclohexyl-2,3,4,7-tetrahydro-1H-pyrrolo[2,3-h][1,6]naphthyridine]	< 6.00
CC[C@H]1C[C@@H](COc2cnc(C#N)cn2)C[C@H]1c1nnc2cnc3[nH]ccc3n12 (single isomer, unassigned) [AA.1.42, 5-((cis-3-ethyl-4-(6H-pyrrolo[2,3-e][1,2,4]triazolo[4,3-a]pyrazin-1-yl)cyclopentyl)methoxy)-pyrazine-2-carbonitrile]	< 6.00
O=S(=O)(NC12CCC(c3nnc4cnc5[nH]ccc5n34)(CC1)CC2)N1CCCC1 [Example #9, N-(4-(6H-pyrrolo[2,3-e][1,2,4]triazolo[4,3-a]pyrazin-1-yl)bicyclo[2.2.2]octan-1-yl)pyrrolidine-1-sulfonamide]	6.00 to 7.00
O=S(=O)(CCC(F)(F)F)NC1CCCN(c2ncc3cnc4[nH]ccc4n23)C1 (centres unmarked) [D.1.72]	6.00 to 7.00
C[C@@H]1CCN(C(=O)CCc2cc(Cl)no2)C[C@@H]1c1ncc2cnc3[nH]ccc3n12 [H.1.10]	> 7.00
C[C@H]1CCN(C(=O)N(C)C)C[C@H]1c1ncc2cnc3[nH]ccc3n12 (racemic) [I.2.2]	> 7.00
O=C(N1CCC[C@@H](c2ncc3cnc4[nH]ccc4n23)C1)N1CC(F)(F)C1 [J.3.1]	> 7.00
CCC1(S(=O)(=O)N[C@H]2C[C@@H](C)[C@@H](c3ncc4cnc5[nH]ccc5n34)C2)CC1 [D.1.83]	> 7.00
O=C(C1CC(F)(F)C1)N1CCC[C@@H](c2ncc3cnc4[nH]ccc4n23)C1 [H.4.1]	6.00 to 7.00
O=S(=O)(NC12CCC(c3ccc4cnc5[nH]ccc5n34)(CC1)CC2)C1CC1 [D.1.76]	6.00 to 7.00
CC[C@H]1C[C@@H](OCc2ccc(OC)cc2)C[C@@H]1c1n[nH]c2cnc3[nH]ccc3c12 (single isomer, unassigned) [Example #30]	6.00 to 7.00
C[C@@H]1CCN(C(=O)N2CC(F)(F)C2)C[C@@H]1c1ncc2cnc3[nH]ccc3n12 [J.2.5]	> 7.00
O=S(=O)(CCC(F)(F)F)NC[C@H]1CC[C@@H](c2ncc3cnc4[nH]ccc4n23)C1 (single isomer, unassigned) [AA.1.62]	6.00 to 7.00
C[C@@H]1C[C@H](NS(=O)(=O)N2CC(F)(F)C2)C[C@@H]1c1ncc2cnc3[nH]ccc3n12 [D.1.78]	> 7.00
O=S(=O)(NC12CCC(c3n[nH]c4cnc5[nH]ccc5c34)(CC1)CC2)C1CC1 [Example #29, N-(4-(3,6-dihydropyrazolo[4,3-d]pyrrolo[2,3-b]pyridin-1-yl)bicyclo[2.2.2]octan-1-yl)cyclopropanesulfonamide]	> 7.00
CC[C@@H]1C[C@H](Nc2cnc(C#N)cn2)C[C@@H]1c1ncc2cnc3[nH]ccc3n12 [D.2.13]	> 7.00
